Laboratory results: ChEMBL document CHEMBL5126562, “Surprising lipophilicity observations identify unexpected conformational effects” (Bioorg Med Chem Lett, 2022)
≈ marks a conversion by molar mass, not a printed value.

What was measured:
[1] = Lipophilicity, logD of compound at pH 7.4; type: physicochemical; details: buffer
[2] = Solubility of compound at pH 7.4; type: physicochemical; details: buffer

Structure (SMILES)	logD [1]	solubility [2] [µM]
N#Cc1cccc2ncn(CC(=O)NCc3ccc(C(F)(F)F)nc3N3CCCCC3=O)c12	1.8	> 200
N#Cc1cccc2ncn(CC(=O)NCc3ccc(C(F)(F)F)nc3N3CCCC3=O)c12	1.8	> 2400
O=C1CCCN1c1cnc(NCc2c(F)ccc3c2CCO3)n2cnnc12	1.3	
CN1CCN(c2ccc(F)cc2CN2CCN(c3ccc(N4CCOCC4)cc3)C2=O)CC1	2.1	189 (≈ 85.7 µg/mL)
CC(=O)N1CCc2cc(-c3cccc4c3CCCC4)cc(N3CCCCC3=O)c21	3.8	259 (≈ 101 µg/mL)
CN1CCN(c2ccc(F)cc2CN2CCCN(c3ccc(N4CCOCC4)cc3)C2=O)CC1	1.6	387 (≈ 181 µg/mL)
Cc1nc(Nc2cccc(N3CCOC3=O)n2)sc1-c1cc2c(c(S(=O)(=O)NC3COC3)c1)C(=O)N([C@@H](C)C1CC1)C2	> 4	0.021 (≈ 0.0128 µg/mL)
CS(=O)(=O)c1ccc(CNC(=O)C2CCCN(c3cccc(C(F)(F)F)c3)C2=O)cc1 (stereo unspecified)	1.5	94 (≈ 42.7 µg/mL)
Cc1nc(Nc2cccc(N3CCCCC3=O)n2)sc1-c1cc2c(c(S(=O)(=O)NC3COC3)c1)C(=O)N([C@@H](C)C1CC1)C2	3.6	1.8 (≈ 1.12 µg/mL)
O=C1CCCN1c1cnc(NCc2c(F)ccc3c2CCO3)c2cn[nH]c(=O)c12	1.8	
O=C([C@@H]1C[C@H]1c1cccc(N2CCCCC2=O)c1)N1CCN(C2CCC2)CC1	1.6	> 3000
C[C@]1(CS(=O)(=O)N2CC=C(C#Cc3cccc(N4CCCC4=O)c3)CC2)NC(=O)NC1=O	1.5	94 (≈ 42.9 µg/mL)
COc1ccc(N2CCN(C)CC2)c(CN2CCCN(c3ccc(N4CCOCC4)cc3)C2=O)c1	1.3	404 (≈ 194 µg/mL)
C[C@]1(CS(=O)(=O)N2CC=C(C#Cc3cccc(N4CCCCC4=O)c3)CC2)NC(=O)NC1=O	1	89 (≈ 41.9 µg/mL)
O=C([C@H]1C[C@@H]1c1cccc(N2CCCCC2=O)c1)N1CCN(C2CCC2)CC1	1.7	2190 (≈ 837 µg/mL)
Cc1nc(Nc2cccc(N3CCN(C)C3=O)n2)sc1-c1cc2c(c(S(C)(=O)=O)c1)C(=O)N([C@@H](C)C1CC1)C2	3.4	< 0.045
CN1CCCN(c2cnc(NCc3c(F)ccc4c3CCO4)n3cnnc23)C1=O	1.2	153 (≈ 60.8 µg/mL)
O=C([C@@H]1C[C@H]1c1cccc(N2CCCC2=O)c1)N1CCN(C2CCC2)CC1	2	> 4140
COCC(=O)N1CCC(COc2ccc(N3CCCCC3=O)cc2)C1 (stereo unspecified)	-0.1	> 3970
COc1ccc(N2CCN(C)CC2)c(CN2CCN(c3ccc(N4CCOCC4)cc3)C2=O)c1	1.8	456 (≈ 212 µg/mL)
CS(=O)(=O)c1ccc(CNC(=O)C2CCN(c3cccc(C(F)(F)F)c3)C2=O)cc1 (stereo unspecified)	2.1	15 (≈ 6.61 µg/mL)
O=C1CCCN1c1cccc(C(=O)N(c2ncccc2Cl)[C@@H]2CCCNC2)c1	-0.5	67 (≈ 26.7 µg/mL)
Cc1nc(Nc2cccc(N3CCCCC3=O)n2)sc1-c1cc2c(c(S(=O)(=O)NC3COC3)c1)C(=O)N([C@@H](C)C(F)(F)F)C2	3.8	3 (≈ 1.95 µg/mL)

Now from value to compound:

logD [1]	solubility [2] [µM]	Structure (SMILES)
3.9	6.3 (≈ 3.56 µg/mL)	Cc1nc(Nc2cccc(N3CCCCC3=O)n2)sc1-c1cc2c(c(S(C)(=O)=O)c1)C(=O)N([C@@H](C)C1CC1)C2
-0.9	> 973	O=C1CCCCN1c1cccc(C(=O)N(c2ncccc2Cl)[C@@H]2CCCNC2)c1
> 4	0.081 (≈ 0.0516 µg/mL)	Cc1nc(Nc2cccc(N3CCCC3=O)n2)sc1-c1cc2c(c(S(=O)(=O)NC3COC3)c1)C(=O)N([C@@H](C)C(F)(F)F)C2
1.3	351 (≈ 134 µg/mL)	O=C1CCCCN1c1cnc(NCc2c(F)ccc3c2CCO3)n2cnnc12
4.4	0.054 (≈ 0.0298 µg/mL)	Cc1nc(Nc2cccc(N3CCCC3=O)n2)sc1-c1cc2c(c(S(C)(=O)=O)c1)C(=O)N([C@@H](C)C1CC1)C2 [AZD-8154]
3.5	< 0.14	Cc1nc(Nc2cccc(N3CCCN(C)C3=O)n2)sc1-c1cc2c(c(S(C)(=O)=O)c1)C(=O)N([C@@H](C)C1CC1)C2
1.9	18 (≈ 7.37 µg/mL)	O=C1CCCCN1c1cnc(NCc2c(F)ccc3c2CCO3)c2cn[nH]c(=O)c12
3.5	271 (≈ 101 µg/mL)	CC(=O)N1CCc2cc(-c3cccc4c3CCCC4)cc(N3CCCC3=O)c21
1.4	641 (≈ 246 µg/mL)	CN1CCN(c2cnc(NCc3c(F)ccc4c3CCO4)n3cnnc23)C1=O
2	> 2680	O=C(C1CC1c1ccc(N2CCCC2=O)cc1)N1CCN(C2CCC2)CC1 (stereo unspecified)
0.2	271 (≈ 90.1 µg/mL)	COCC(=O)N1CCC(COc2ccc(N3CCCC3=O)cc2)C1 (stereo unspecified)
